From patent publication US20240191267A1, “Tropane Alkaloid Transporters and Methods of Making Tropane Alkaloids Using the Same” (priority 2021, published 2024)
Values joined by “and” are separate entries in the source; they are usually repeats but may differ in a detail not shown here. Equal entries are not always repeated.

Columns and labels:
[1] = biological target: T1, AbUGT (UDP-glucosyltransferase 84A27) (Atropa belladonna, UniProt A0A3B6XRM0); assay: Conversion of fed phenylpropanoids to glucosides by yeast expressing AbUGT; format: cell-based; conditions: AbUGT from low-copy plasmid in CSY1251; 500 μM substrate, 72 h, selective media
T1 construct: expressed in transfected cells; host or cells: Saccharomyces cerevisiae CSY1251 (tropine-producing, CEN.PK2-derived), low-copy plasmid
T1 sequence (A0A3B6XRM0 1-490): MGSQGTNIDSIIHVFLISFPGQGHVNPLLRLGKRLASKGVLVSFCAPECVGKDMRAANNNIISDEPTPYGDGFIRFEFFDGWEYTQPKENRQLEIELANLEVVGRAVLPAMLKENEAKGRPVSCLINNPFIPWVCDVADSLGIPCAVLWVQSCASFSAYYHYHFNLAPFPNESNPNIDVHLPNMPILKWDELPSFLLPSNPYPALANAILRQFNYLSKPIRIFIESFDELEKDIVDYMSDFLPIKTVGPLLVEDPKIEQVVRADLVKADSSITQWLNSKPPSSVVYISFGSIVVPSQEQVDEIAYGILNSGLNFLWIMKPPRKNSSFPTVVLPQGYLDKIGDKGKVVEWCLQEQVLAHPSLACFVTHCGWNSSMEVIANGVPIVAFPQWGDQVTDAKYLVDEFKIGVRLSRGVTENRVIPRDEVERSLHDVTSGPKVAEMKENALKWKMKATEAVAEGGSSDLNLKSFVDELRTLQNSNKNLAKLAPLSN
Protocol: (B) Heatmap of percent conversion of fed phenylpropanoids to glucosides by yeast engineered for UGT84A27 expression. UGT84A27 orthologs or a BFP negative control were expressed from low-copy plasmids in CSY1251. Transformed cells were cultured in selective media supplemented with 500 μM PLA, CA, or FA for 72 h prior to LC-MS/MS analysis. Data represent the mean of n=3 biologically independent samples ±standard deviation.

[2] = tested on: UGT84A27 orthologs (AbUGT, BsUGT, DmUGT); format: cell-based, Atropa belladonna, Brugmansia sanguinea, D. metel; conditions: all three UGT orthologs, low-copy plasmids in CSY1251; 500 μM substrate, 72 h
Protocol: FIG. 33 illustrates the substrate specificity of UDP-glucosyltransferase 84A27 (UGT84A27) orthologs from TA-producing Solanaceae expressed in engineered yeast. […] (A) Phenylpropanoids tested as glucose (Glu) acceptors for UGT84A27 in engineered yeast. […] (B) Heatmap of percent conversion of fed phenylpropanoids to glucosides by yeast engineered for UGT84A27 expression. UGT84A27 orthologs or a BFP negative control were expressed from low-copy plasmids in CSY1251. Transformed cells were cultured in selective media supplemented with 500 μM PLA, CA, or FA for 72 h prior to LC-MS/MS analysis. Data represent the mean of n=3 biologically independent samples ±standard deviation.

[3] = tested on: AbUGT84A27 active site mutants; assay: Conversion of fed phenylpropanoids to glucosides by yeast expressing AbUGT active site mutants; format: cell-based, Atropa belladonna; conditions: F130Y, L205F, I292Q point mutants of AbUGT in CSY1251; 500 μM substrate, 72 h
Protocol: FIG. 36 illustrates the substrate specificity of AbUGT84A27 active site mutants. […] AbUGT wild-type, active site mutants, or a BFP negative control were expressed from low-copy plasmids in CSY1251. Transformed cells were cultured in selective media supplemented with 500 μM PLA, CA, or FA for 72 h prior to LC-MS/MS analysis. Data represent the mean of n=3 biologically independent samples ±standard deviation.
6.1) As wild-type yeast produce only trace levels of PLA, production of this TA precursor must be increased to permit sufficient accumulation of downstream TAs. To improve PLA production, heterologous phenylpyruvate reductases (PPRs) may be expressed in the engineered host cells. PPR orthologs from E. coli, Lactobacillus, A. belladonna, and Wickerhamia fluorescens, as well as lactate dehydrogenases (LDHs) from Bacillus and Lactobacillus with reported activity on 3-phenylpyruvate (Table 1) were screened for activity in yeast by expressing each enzyme from a low-copy plasmid in CSY1251 and measuring PLA production by LC-MS/MS after 72 h of growth in selective media. […] As such, WfPPR was selected for integration into CSY1251 to make strain CSY1287. […] 6.4.2.1) Extra copies of PGM2 and UGP1 were expressed from low-copy plasmids in CSY1288 and PLA glucoside production was measured following 72 h of growth in selective media. […]

Strain AD1-8 = conditions: selective media
Description: (§1) Solid lines and shaded/hatched bars respectively indicate mean and standard deviation of n=3 biologically independent samples.
(§2) Heatmap values were extracted from mean growth curves in FIG. 80.
(§3) Yeast toxicity assays and growth curves. Candidate transporters for use in non-plant cells for the purpose of enhancing or modulating metabolite localization may be characterized in any suitable strain of the non-plant organism of interest. […] An example protocol for the characterization of TA transporters in yeast is provided as follows. […] Strain AD1-8 is transformed as described earlier with a low-copy plasmid harboring a constitutively expressed transporter candidate or blue fluorescent protein as negative control and a suitable auxotrophic marker, such as URA3, LEU2, TRP1, or […]. Transformants are inoculated into 1 mL of selective YNB-G media and grown overnight (˜14-18 h) at 30° C. and 460 rpm. […] Culture densities (OD600) are then measured every 30 min for 48 h in a suitable plate reader, such as a SpectraMax i3 plate reader (Molecular Devices), with chamber temperature 30° C. and orbital shaking every 30 min. […]

AbPUP1 = assay: Yeast toxicity assay and growth curves, AD1-8 expressing AbPUP1
Description: as §1, §2, §1, §1, §3

AbLP1 = assay: Yeast toxicity assay and growth curves, AD1-8 expressing AbLP1
Description: as §1, §2, §1, §1, §3

Structure (SMILES): O=C(O)[C@H](O)Cc1ccccc1 [PLA, (D)-3-phenyllactic acid]
- percent conversion of fed phenylpropanoid to glucoside [1]: < 3% and 2.7%
- percent conversion of fed phenylpropanoid to glucoside [2]: < 3%
- percent conversion of fed phenylpropanoid to glucoside [3]: < 3%

Structure (SMILES): O=C(O)/C=C/c1ccccc1 [cinnamic acid, trans-cinnamic acid]
- percent conversion of fed phenylpropanoid to glucoside [1]: ~60%

Structure (SMILES): CN1[C@@H]2CC[C@H]1C[C@@H](O)C2 [tropine]
- growth of AD1-8 at tested concentrations higher than 1 mM (Strain AD1-8; concentrations above 1 mM): severely retarded the growth
- sensitivity to alkaloid conferred by transporter expression (AbPUP1; AD1-8 expressing AbPUP1, tropine only at 1 mM): not
- sensitivity to alkaloid conferred by transporter expression (AbLP1; AD1-8 expressing AbLP1, tropine only at 1 mM): not

Structure (SMILES): CN1[C@@H]2CC[C@H]1CC(OC(=O)[C@H](O)Cc1ccccc1)C2 (stereo partly shown) [littorine]
- θHM, ratio of time for half-maximal OD600 at 20 mM relative to at 0 mM (Strain AD1-8; AD1-8 expressing BFP control from low-copy plasmid, 0-20 mM alkaloid): ~1.0
- θHM, ratio of time for half-maximal OD600 at 20 mM relative to at 0 mM (AbPUP1; AD1-8 expressing AbPUP1 from low-copy plasmid, selective media, 0-20 mM alkaloid): ~1.3
- θHM, ratio of time for half-maximal OD600 at 20 mM relative to at 0 mM (AbLP1; AD1-8 expressing AbLP1 from low-copy plasmid, selective media, 0-20 mM alkaloid): ~1.1
